From US20240174618A1, “SUBSTITUTED (2-HETEROARYLOXYPHENYL)SULFONATES, SALTS THEREOF AND THEIR USE AS HERBICIDAL AGENTS” (Bayer Aktiengesellschaft, priority 2021, published 2024) come the findings set out here.

Format in all cases: in vivo
Data set [1] concerns Avena fatua (AVEFA). Put plainly: C. Herbicidal pre-emergence efficacy, AVEFA. Particulars: 320 g/ha, scored after about 3 weeks. An excerpt:
(§1) Seeds of monocotyledonous and dicotyledonous weed plants and crop plants were placed in plastic or organic planting pots and covered with soil. The compounds of the invention, formulated in the form of wettable powders (WP) or as emulsion concentrates (EC), were then applied to the surface of the covering soil as aqueous suspension or emulsion with addition of 0.5% additive at a water application rate equivalent to 600 l/ha (converted). After the treatment, the pots were placed in a greenhouse and kept under good growth conditions for the test plants. After about 3 weeks, the efficacy of the preparations was scored visually in comparison with untreated controls as percentages. For example, • 100% efficacy=plants have died, • 0% efficacy=like untreated control plants.
(§2) Tables C1a to C14b below show the effects of selected compounds of the general formula (I) according to table 1 on various harmful plants at an application rate corresponding to 320 g/ha or less, which were obtained by the experimental procedure mentioned above.

Data set [2] deals with Digitaria sanguinalis (DIGSA). Put plainly: E. Herbicidal post-emergence efficacy, DIGSA. As for the experimental part: Seeds of monocotyledonous and dicotyledonous weeds and crop plants were placed in sandy loam in plastic or organic planting pots, covered with soil and cultivated in a greenhouse under controlled growth conditions. 2 to 3 weeks after sowing, the test plants were treated at the one-leaf stage. The compounds of the invention, formulated in the form of wettable powders (WP) or as emulsion concentrates (EC), were then sprayed onto the green parts of the plants as aqueous suspension or emulsion with addition of 0.5% additive at a water application rate of 600 l/ha (converted). After the test plants had been kept in the greenhouse under optimum growth conditions for about 3 weeks, the activity of the preparations was rated visually in comparison to untreated controls.
For example, • 100% efficacy=plants have died, • 0% action=like untreated control plants.
Tables E1a to E12b below show the effects of selected compounds of the general formula (I) according to table 1 on various harmful plants at an application rate corresponding to 320 g/ha or less, which were obtained by the experimental procedure mentioned above.

Data set [3] concerns Matricaria inodora (MATIN). Put plainly: C. Herbicidal pre-emergence efficacy, MATIN. To be noted: scored after about 3 weeks. The method, boiled down:
(§3)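 Pre-emergence test: formulated compounds sprayed as aqueous suspension or emulsion with 0.5% additive at 600 l/ha onto soil covering sown seeds, at rates corresponding to 320 g/ha or less. After about 3 weeks in greenhouse, efficacy scored visually as percent versus untreated controls (100% = plants dead).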

In data set [4] the test system is Alopecurus myosuroides (ALOMY). Put plainly: C. Herbicidal pre-emergence efficacy, ALOMY. To be noted: scored after about 3 weeks. The method, boiled down: as §3
The subject of data set [5] is Alopecurus myosuroides (ALOMY). Put plainly: E. Herbicidal post-emergence efficacy, ALOMY. In short, it runs like this:
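Visual scoring against untreated plants was done roughly 3 weeks after spraying (0% = no effect, 100% = plants dead). Spray application at 320 g/ha or lower, 600 l/ha water with 0.5% additive, was made onto green parts of one-leaf-stage greenhouse plants grown 2-3 weeks in sandy loam.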

Data set [6] relates to Triticum aestivum (TRZAS). Put plainly: D. Pre-emergence effect on useful plants, TRZAS. Particulars: useful plant, application rate 80 g/ha. In short, it runs like this:
(§4)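 Seeds sown in pots and covered with soil; WP or EC formulations sprayed on the soil surface as aqueous suspension/emulsion with 0.5% additive at 600 l/ha water. Plants grown in greenhouse; crop damage scored visually after about 3 weeks as % versus untreated controls (100% = dead, 0% = like control).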

For data set [7], the system named is Poa annua (POAAN). As to the kind of experiment: B. Herbicidal post-emergence efficacy, POAAN. In short, it runs like this: (§5)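 Post-emergence greenhouse test: one-leaf-stage plants, compound (WP/EC, +0.5% additive, 600 L/ha water, ≤1280 g/ha) applied to green parts; % efficacy scored visually vs untreated after ~3 wk; 100% = plants died.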
Data set [8] has as its system Zea mays (ZEAMX). Put plainly: D. Pre-emergence effect on useful plants, ZEAMX. Particulars: useful plant, application rate 80 g/ha. In short, it runs like this: as §4
For data set [9], the system named is Pharbitis purpurea (PHBPU). As to the kind of experiment: C. Herbicidal pre-emergence efficacy, PHBPU. Particulars: scored after about 3 weeks.
From the text: as §1, §2

For data set [10], the system named is Lolium rigidum (LOLRI). Put plainly: B. Herbicidal post-emergence efficacy, LOLRI. To be noted: 1280 g/ha. The method, boiled down: as §5

For `O=S(=O)(CC1CC1)Oc1ccccc1Oc1ncc(Cl)cn1` [Example I-23], the “Pre-emergence efficacy against AVEFA” value in [1] is 90%. The “Post-emergence efficacy against DIGSA in %” value in data set [2] (application rate 320 g/ha) is recorded as 100%. The “Pre-emergence efficacy against MATIN” value in [3] (320 g/ha) was 100%. Also, the “Pre-emergence efficacy against ALOMY” value in data set [4] (80 g/ha) was 80%; in data set [4] (320 g/ha) it was 100%. Also, the “Post-emergence efficacy against ALOMY in %” value in [5] (application rate 320 g/ha) came out at 80%. Besides, the “Pre-emergence efficacy against TRZAS in %” value in [6] was 0%. The “Post-emergence efficacy against POAAN” value in [7] (80 g/ha) came out at 90%; in data set [7] (320 g/ha) it was 90%; in data set [7] (1280 g/ha), 100%. The “Pre-emergence efficacy against ZEAMX in %” value in data set [8] worked out at 0%. In addition, the “Pre-emergence efficacy against PHBPU” value in [9] (320 g/ha) turned out to be 80%.
`O=S(=O)(CCC(F)(F)F)Oc1c(F)cccc1Oc1ncc(F)cn1` [Example I-47]: in [1], the “Pre-emergence efficacy against AVEFA” value was found to be 100%. For the same compound, the results for the “Pre-emergence efficacy against MATIN” value in data set [3] (80 g/ha) and in data set [3] (320 g/ha) were 90% and 100%, respectively. In addition, the “Pre-emergence efficacy against ALOMY” value in data set [4] (80 g/ha) and in data set [4] (320 g/ha) was 100% throughout. For the same compound, in [5] (application rate 320 g/ha), the “Post-emergence efficacy against ALOMY in %” value turned out to be 100%. The entries for the “Pre-emergence efficacy against PHBPU” value in data set [9] (80 g/ha) and in data set [9] (320 g/ha) were 90% and 100%, respectively.
As for `O=S(=O)(CCCC(F)(F)F)Oc1c(F)cccc1Oc1ncc(F)cn1` [Example I-42], in [1], the “Pre-emergence efficacy against AVEFA” value came out at 100%. Also, the “Post-emergence efficacy against DIGSA in %” value in [2] (application rate 80 g/ha) and in data set [2] (application rate 320 g/ha) was 90% in each case. Moreover, the figures for the “Pre-emergence efficacy against MATIN” value in data set [3] (80 g/ha) and in data set [3] (320 g/ha) were 90% and 100%, respectively. For the same compound, the “Pre-emergence efficacy against ALOMY” value in data set [4] (80 g/ha) and in [4] (320 g/ha) was 100% in each case. The “Post-emergence efficacy against ALOMY in %” value in [5] (application rate 80 g/ha) was 90%; in data set [5] (application rate 320 g/ha), 100%. The “Pre-emergence efficacy against PHBPU” value in [9] (80 g/ha) and in [9] (320 g/ha) was 100% in each case.
`O=S(=O)(CCC(F)(F)F)Oc1ccccc1Oc1ncc(Cl)cn1` [Example I-8]: in [1], the “Pre-emergence efficacy against AVEFA” value amounted to 90%. Moreover, the “Post-emergence efficacy against DIGSA in %” value in [2] (application rate 80 g/ha) stood at 80%; in data set [2] (application rate 320 g/ha) it was 90%. In addition, the “Pre-emergence efficacy against MATIN” value in data set [3] (80 g/ha) and in data set [3] (320 g/ha) was 80% each time. In data set [10], the “Post-emergence efficacy against LOLRI” value turned out to be 90%. Also, the “Pre-emergence efficacy against ALOMY” value in data set [4] (80 g/ha) was determined as 90%; in data set [4] (320 g/ha), 100%. In data set [5] (application rate 320 g/ha), the “Post-emergence efficacy against ALOMY in %” value was 90%. For the same compound, the “Pre-emergence efficacy against TRZAS in %” value in [6] is listed as 20%. Further, the “Post-emergence efficacy against POAAN” value in [7] (1280 g/ha) was 90%. Further, in data set [9] (320 g/ha), the “Pre-emergence efficacy against PHBPU” value was found to be 80%.
As to `O=S(=O)(CCCCl)Oc1ccccc1Oc1ncc(F)cn1` [Example I-5], the “Pre-emergence efficacy against AVEFA” value in data set [1] was 80%. Moreover, the “Pre-emergence efficacy against MATIN” value in data set [3] (320 g/ha) is given as 90%. Further, the “Pre-emergence efficacy against ALOMY” value is 90% in data set [4] (80 g/ha) and 100% in [4] (320 g/ha). Further, the “Post-emergence efficacy against ALOMY in %” value in data set [5] (application rate 80 g/ha) came to 80%; in data set [5] (application rate 320 g/ha), 90%. Also, the “Post-emergence efficacy against POAAN” value was found to be 90% in [7] (320 g/ha) and 100% in data set [7] (1280 g/ha). The “Pre-emergence efficacy against ZEAMX in %” value in data set [8] was found to be 20%. Further, in data set [9] (320 g/ha), the “Pre-emergence efficacy against PHBPU” value is on record as 80%.
Turning to `CCCCS(=O)(=O)Oc1ccccc1Oc1ncc(Cl)cn1` [Example I-6], the “Pre-emergence efficacy against AVEFA” value in data set [1] came out at 80%. Moreover, the “Post-emergence efficacy against DIGSA in %” value came out at 80% in [2] (application rate 80 g/ha) and 100% in data set [2] (application rate 320 g/ha). Further, the “Pre-emergence efficacy against ALOMY” value in data set [4] (80 g/ha) came to 80%; in [4] (320 g/ha), 90%. Besides, the “Post-emergence efficacy against ALOMY in %” value in data set [5] (application rate 320 g/ha) is on record as 90%. Besides, in data set [7] (1280 g/ha), the “Post-emergence efficacy against POAAN” value is 100%. Moreover, in data set [9] (320 g/ha), the “Pre-emergence efficacy against PHBPU” value worked out at 80%.
